The values below come from paper PMC8518537, “N‐(Anilinoethyl)amide Melatonergic Ligands with Improved Water Solubility and Metabolic Stability” (Chemmedchem, 2021).

In brackets after ≈: the same amount, converted by molar mass. Read-outs that look alike come from different tables or passages of the source.

One series has as its target human MT1 receptors (Homo sapiens, UniProt P48039). The series can be described thus: Radioligand binding, 2-[125I]iodomelatonin competition at MT1. To be noted: cloned human MT1 in CHO cells; from IC50 by Cheng-Prusoff; mean±SD of three determinations; read-out: MT1 K i.
Another series addresses T1, human MT2 receptors (Homo sapiens, UniProt P49286).
T1 sequence (P49286 1-362): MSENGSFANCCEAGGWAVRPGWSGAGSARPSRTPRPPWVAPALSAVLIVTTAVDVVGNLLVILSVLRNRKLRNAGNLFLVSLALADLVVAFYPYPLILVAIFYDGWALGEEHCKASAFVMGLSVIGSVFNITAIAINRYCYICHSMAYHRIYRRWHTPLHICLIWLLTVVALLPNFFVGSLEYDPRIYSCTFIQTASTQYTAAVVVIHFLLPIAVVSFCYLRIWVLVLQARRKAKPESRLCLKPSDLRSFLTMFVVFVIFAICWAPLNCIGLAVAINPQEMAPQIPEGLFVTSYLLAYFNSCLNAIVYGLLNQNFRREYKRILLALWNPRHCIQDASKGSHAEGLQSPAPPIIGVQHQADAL
The series can be described thus: Radioligand binding, 2-[125I]iodomelatonin competition at MT2. The settings on record: cloned human MT2 in CHO cells; from IC50 by Cheng-Prusoff; mean±SD of three determinations; read-out: MT2 K i.

Series [1] is described as follows: Thermodynamic solubility, shake flask method. The format is physicochemical. The settings on record: thermodynamic from solid, room temperature overnight, mean±SD, triplicate.
Description: Thermodynamic solubility values were measured in two different buffers (pH 1.0; pH 7.4) by the shake flask method.[65] 1 mg of each compound was placed in 1 mL of appropriate buffer and shaken at room temperature overnight. The resulting suspension was centrifuged (10 min, 10000 g, 20 °C) and the supernatant analyzed by HPLC‐UV. Solubility values were interpolated from calibration curves prepared from concentrated DMSO stock solutions of each compound. Reported solubility values are the mean of three measurements±standard deviation.
It consisted of a LC‐10ADvp solvent delivery module, a 20 μL Rheodyne sample injector (Rheodyne LLC, Rohnert Park, CA, USA) and a SPD‐10Avp UV‐VIS detector. PeakSimple 2.83 software was employed for data acquisition and HPLC peak integration. […] Elution conditions were optimized for each compound at a flow rate of 1 mL min^−1 employing mobile phases consisting of water and acetonitrile at different percentages, while UV detection was set at λ = 254 nm.
Series [2] can be described thus: Metabolic stability in rat liver microsomes. The format is in vitro ADME. To be noted: for CLi Rat LM (intrinsic clearance) / half-life at 5 μM: rat liver microsomes 1 mg protein/mL, 5 μM compound, mean±SD; for CLi Rat LM (intrinsic clearance): 37 °C; for half-life at 5 μM: NADPH-regenerating system, pH 7.4, 37 °C, read-out: t 1/2 Rat LM.
Description: (§1) Each compound (final concentration: 5 μM) was incubated in the presence of rat or human liver microsomes (final concentration: 1 mg protein/mL) and of a NADPH‐regenerating system (final concentrations: 2 mM NADP^+, 10 mM glucose‐6‐phosphate, 0.4 U mL^−1 glucose‐6‐phosphate dehydrogenase, 5 mM MgCl2) in a 10 mM Phosphate Buffered Saline (PBS) solution, pH 7.4, at 37 °C. Compound was added after a 10 min pre‐incubation at 37 °C and. at stated time points, depending on compound kinetics, sample aliquots were withdrawn, metabolic reaction was quenched by acetonitrile addition (1 : 2), and after a centrifugation step (9000 g, 10 min, 4 °C) the supernatant was analyzed by HPLC‐UV‐VIS.
(§2) Apparent half‐lives (t1/2 in min) for the metabolic clearance of compounds were calculated from the pseudo first‐order rate constants (k) obtained by linear regression of the log chromatographic peak area versus time plots and are reported as means of three experiments±standard deviation. Intrinsic clearance (CLi) values of the compounds were calculated using the following equation: CLi (μL×min^−1×mg protein^−1)=k×V where V (μL×mg protein^−1)=incubation volume/mg protein added.
(§3) Pooled rat and human liver microsomes (20 mg/mL) were supplied by BD Biosciences (BD Biosciences, Woburn, MA, USA). Acetonitrile and methanol were HPLC grade and were supplied by Sigma‐Aldrich (Sigma‐Aldrich srl, Milan, Italy). Water was freshly bidistilled before use. All other reagents were purchased in the highest purity available.
(§4) PeakSimple 2.83 software was employed for data acquisition and HPLC peak integration. HPLC columns were a RP‐C18 Supelco Discovery (Supelco, Bellefonte, PA, USA), 5 μm, 150×4.6 mm i.d. for all compounds except 13, and a Phenomenex Gemini, 5 μm, 150×4.6 mm i.d. for compound 13 (Phenomenex). Elution conditions were optimized for each compound at a flow rate of 1 mL min^−1 employing mobile phases consisting of water and acetonitrile at different percentages, while UV detection was set at λ = 254 nm. For compound 13, the mobile phase consisted of a 10 mM ammonium acetate buffer pH 7.0 and methanol and the UV detection was set at λ = 281 nm.
Series [3] in a line: Metabolic stability in human liver microsomes. The format is in vitro ADME. To be noted: for CLi Human LM (intrinsic clearance) / half-life at 5 μM: human liver microsomes 1 mg protein/mL, 5 μM compound, mean±SD; for CLi Human LM (intrinsic clearance): 37 °C; for half-life at 5 μM: NADPH-regenerating system, pH 7.4, 37 °C, read-out: t 1/2 Human LM.
Description: as §1, §2, §3, §4
Series [4] is described as follows: Experimental lipophilicity, shake-flask n-octanol/water. The format is physicochemical. The settings on record: n-octanol/water (MOPS buffer); n-octanol/50 mM MOPS buffer pH 7.4, 25±1 °C; mean±SD of three; read-out: Log D oct,7.4.
Description: Chosen buffer was 50 mM zwitterionic MOPS (3‐morpholinopropanesulfonic acid), pH 7.4 to avoid ionic couple partitioning, with ionic strength adjusted to 0.15 M by KCl addition. Compounds, after partitioning overnight, and dilution of both phases with methanol, were dosed in the HPLC‐UV system, as detailed below. Reported log D oct,7.4 values are the mean of three measurements±standard deviation.
HPLC columns were a RP‐C18 Supelco Discovery (Supelco, Bellefonte, PA, USA), 5 μm, 150×4.6 mm i.d. for all compounds except 13, and a Phenomenex Gemini, 5 μm, 150×4.6 mm i.d. for compound 13 (Phenomenex). Elution conditions were optimized for each compound at a flow rate of 1 mL min^−1 employing mobile phases consisting of water and acetonitrile at different percentages, while UV detection was set at λ = 254 nm. For compound 13, the mobile phase consisted of a 10 mM ammonium acetate buffer pH 7.0 and methanol and the UV detection was set at λ = 281 nm.
Setting [5] is: buffer pH 1.0, simulated gastric fluid, pH 1.0 buffer, read-out: Solubility pH 1.0.
Where [6] appears, read: buffer pH 7.4, aqueous buffer, pH 7.4 buffer, read-out: Solubility pH 7.4.

Sequence of human MT1 receptors (P48039 whole entry): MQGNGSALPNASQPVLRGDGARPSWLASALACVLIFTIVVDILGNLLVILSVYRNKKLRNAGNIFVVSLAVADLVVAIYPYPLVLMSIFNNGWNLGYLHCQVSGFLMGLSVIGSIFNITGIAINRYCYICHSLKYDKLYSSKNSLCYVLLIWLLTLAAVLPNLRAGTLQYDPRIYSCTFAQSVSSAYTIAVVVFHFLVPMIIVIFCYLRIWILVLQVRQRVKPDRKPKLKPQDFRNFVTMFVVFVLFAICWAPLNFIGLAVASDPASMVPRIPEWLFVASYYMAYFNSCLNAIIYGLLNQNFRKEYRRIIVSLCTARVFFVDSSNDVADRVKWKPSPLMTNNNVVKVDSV
Description for human MT1 receptors: (§5) The in vitro pharmacology experiments were conducted at Cerep (Celle‐Lévescault, France) following radioligand binding and cellular functional assays developed elsewhere.[60, 61, 62]
(§6) After incubation, the % of radioligand binding inhibition was determined via a scintillation counting method. The radioligand binding experiments were performed in triplicate. IC50 values were determined by nonlinear regression analysis of the competition curves using Hill equation curve fitting. The pK i values were calculated from the IC50 values in accordance with the Cheng‐Prusoff equation.[28]
Description for human MT2 receptors: as §5, §6

Regarding `CCNC(=O)NCCN(c1ccccc1)c1cccc(OC)c1` [Compound 6 b, 1‐Ethyl‐3‐{2‐[(3‐methoxyphenyl)phenylamino]ethyl}urea], the Ki on human MT1 receptors came out at 20 ± 0.45 nM; at human MT2 receptors, 0.65 ± 0.03 nM. Besides, the figures for the solubility in series [1] (setting [5]) and in series [1] (setting [6]) were 14.9 ± 0.6 µg/mL (≈ 47.5 µM) and 10.2 ± 1.7 µg/mL (≈ 32.5 µM), respectively. Also, the “CLi Rat LM (intrinsic clearance)” value in series [2] was 98.1±6.8 μL min^−1 mg prot^−1. Further, the half-life at 5 μM in series [2] came to 7.1 ± 0.5 min; in series [3], 15.4 ± 1 min. The “CLi Human LM (intrinsic clearance)” value in series [3] is listed as 45.1±3.0 μL min^−1 mg prot^−1. Moreover, the logD in series [4] is 3.3 ± 0.02.

For the compound `COc1cccc(N(CCNC(C)=O)c2ccccc2)c1` [Compound 2, N‐{2‐[(3‐methoxyphenyl)phenylamino]ethyl}acetamide, reference compound], the Ki came out at 1.6 ± 0.14 nM at human MT1 receptors and 0.29 ± 0.1 nM on human MT2 receptors. The solubility in series [1] (setting [5]) is 125 ± 5 µg/mL (≈ 440 µM); in series [1] (setting [6]), 104 ± 5 µg/mL (≈ 366 µM). Also, the “CLi Rat LM (intrinsic clearance)” value in series [2] worked out at 408±85 μL min^−1 mg prot^−1. Besides, the half-life at 5 μM was found to be 1.7 ± 0.4 min in series [2] and 40.8 ± 1.1 min in series [3]. Also, in series [3], the “CLi Human LM (intrinsic clearance)” value stood at 17±1 μL min^−1 mg prot^−1. Besides, in series [4], the logD worked out at 2.93 ± 0.01.

For the compound `COc1cccc(N(CCNC(C)=O)c2ccncc2)c1` [Compound 13, N ‐{2‐[(3‐Methoxyphenyl)(pyridine‐4‐yl)amino]ethyl}acetamide], the Ki at human MT1 receptors and at human MT2 receptors was above 100 nM each time. In addition, the solubility in series [1] (setting [5]) is above 1000 µg/mL; in series [1] (setting [6]), 1020 ± 93.7 µg/mL (≈ 3570 µM). The logD in series [4] stood at 0.41 ± 0.01.

Consider `CC(=O)NCCN(c1ccc(F)cc1)c1cccc(Br)c1` [Compound 3, N‐{2‐[(3‐bromophenyl)‐(4‐fluorophenyl)amino]ethyl}acetamide, reference compound], for which the Ki at human MT1 receptors is above 100 nM; at human MT2 receptors it was 1.4 ± 0.08 nM. The solubility in series [1] (setting [5]) was 6.9 ± 0.1 µg/mL (≈ 19.6 µM); in series [1] (setting [6]), 5.1 ± 0.2 µg/mL (≈ 14.5 µM). The “CLi Rat LM (intrinsic clearance)” value in series [2] is reported as 38.1±6.0 μL min^−1 mg prot^−1. In addition, the figures for the half-life at 5 μM in series [2] and in series [3] were 18.2 ± 2.8 min and 71.2 ± 3.4 min, respectively. In addition, in series [3], the “CLi Human LM (intrinsic clearance)” value turned out to be 9.7±0.5 μL min^−1 mg prot^−1. Further, the logD in series [4] came to 3.84 ± 0.05.

Take `COc1cccc(N(CCNC(C)=O)CCc2ccccc2)c1` [Compound 12, N ‐{2‐[(3‐Methoxyphenyl)(phenethyl)amino]ethyl}acetamide]: the Ki on human MT1 receptors is above 100 nM; on human MT2 receptors it was 2.1 ± 0.15 nM. In addition, the solubility was above 1000 µg/mL in series [1] (setting [5]) and 110 ± 6.9 µg/mL (≈ 351 µM) in series [1] (setting [6]). The “CLi Rat LM (intrinsic clearance)” value in series [2] was determined as 247.3±34.2 μL min^−1 mg prot^−1. Besides, the half-life at 5 μM in series [2] amounted to 2.9 ± 0.5 min; in series [3], 7.2 ± 0.5 min. Besides, the “CLi Human LM (intrinsic clearance)” value in series [3] is recorded as 96.7±6.3 μL min^−1 mg prot^−1. Also, the logD in series [4] stood at 3.44 ± 0.02.

Turning to `COc1cccc(N(CCNC(C)=O)c2cccc(O)c2)c1` [Compound 15, N ‐{2‐[(3‐Hydroxyphenyl)(3‐methoxyphenyl)amino]ethyl} acetamide], the results for the Ki at human MT1 receptors and on human MT2 receptors were 53 ± 1.6 nM and 1.4 ± 0.15 nM, respectively. The solubility is 95.9 ± 4.2 µg/mL (≈ 319 µM) in series [1] (setting [5]) and 119 ± 2.8 µg/mL (≈ 395 µM) in series [1] (setting [6]). Besides, in series [2], the “CLi Rat LM (intrinsic clearance)” value worked out at 217.3±44.6 μL min^−1 mg prot^−1. Further, the half-life at 5 μM in series [2] came out at 3.3 ± 0.6 min; in series [3], 66.2 ± 2.8 min. For the same compound, the “increase of rat microsomal stability compared to UCM765” value in series [2] (rat liver microsomes, versus UCM765) is “approximately 1.5 fold”. Besides, in series [3], the “CLi Human LM (intrinsic clearance)” value is reported as 10.5±0.4 μL min^−1 mg prot^−1. Moreover, in series [3] (human liver microsomes, versus UCM765), the “increase of human microsomal stability compared to UCM765” value is “approximately 1.5 fold”. Besides, the logD in series [4] worked out at 2.42 ± 0.02.

In the case of `COc1cccc(N(CCNC(N)=O)c2ccccc2)c1` [Compound 6 a, 1‐{2‐[(3‐Methoxyphenyl)phenylamino]ethyl}urea], the Ki at human MT1 receptors was above 100 nM; on human MT2 receptors, 10 ± 0.13 nM. Besides, the solubility in series [1] (setting [5]) was 364 ± 3.7 µg/mL (≈ 1280 µM); in series [1] (setting [6]), 311.4 ± 2.6 µg/mL (≈ 1090 µM). Also, the “CLi Rat LM (intrinsic clearance)” value in series [2] was determined as 44.2±1.0 μL min^−1 mg prot^−1. Also, the half-life at 5 μM in series [2] worked out at 15.7 ± 0.4 min; in series [3], 77.5 ± 13.4 min. Moreover, the “CLi Human LM (intrinsic clearance)” value in series [3] came to 9.1±1.5 μL min^−1 mg prot^−1. The logD in series [4] came out at 2.65 ± 0.02.

`COc1ccc(-c2ccccc2)c(N(C)CCNC(C)=O)c1` [Compound 18, N ‐{2‐[(4‐Methoxy‐[1,1’‐biphenyl]‐2‐yl)(methylamino)]ethyl}acetamide]: the Ki was found to be 32 ± 0.8 nM on human MT1 receptors and 1.7 ± 0.13 nM at human MT2 receptors. The solubility in series [1] (setting [5]) is above 1000 µg/mL; in series [1] (setting [6]), 340 ± 9.7 µg/mL (≈ 1140 µM). Moreover, the “CLi Rat LM (intrinsic clearance)” value in series [2] is given as 468.9±12.9 μL min^−1 mg prot^−1. Besides, the half-life at 5 μM came to 1.5 ± 0.1 min in series [2] and 11.2 ± 0.7 min in series [3]. For the same compound, the “CLi Human LM (intrinsic clearance)” value in series [3] came out at 61.9±3.8 μL min^−1 mg prot^−1. Besides, the logD in series [4] worked out at 3.11 ± 0.02.

Usually solubility stands for how much of the substance goes into solution per volume.
